Test results from paper PMC4556614 (PLoS ONE, 2015).
Where two headings read alike, the source gives them in different places.

Key:
[1] = biological target: T1, OCT2 (Homo sapiens, UniProt O15244); experiment: Inhibition of OCT2-mediated [3H]MPP+ uptake in HEK-OCT2 cells; conditions: for inhibition at 3 min, 20 µM / inhibition at 3 min, 200 µM: pH 7.3, probe [3H]MPP+, 50 µM
Protocol: (§1) For the transport assays HEK cell lines stably transfected with human OCT2 (HEK-OCT2) or the vector only (HEK-VC) were used. The HEK-OCT2 cell line was established and characterized previously. HEK-OCT2 and HEK-VC cells were seeded in poly-D-lysine (Sigma Aldrich, Taufkirchen, Germany) coated 48-well-plates at a density of 1.2 x 10^5 cells/well. […] Uptake was stopped by washing the cells three times with ice-cold uptake buffer. Afterwards, cells were lysed with 5 mM Tris buffer (pH 7.3) containing 0.1% Triton X-100. The intracellular accumulation of radioactivity was determined by liquid scintillation counting (PerkinElmer, Rodgau-Jügesheim, Germany) and protein concentration of each lysate was measured with bicinchonic acid assay (BCA Protein Assay Kit, Thermo Fisher Scientific, Waltham, MA, USA). We performed two to eight experiments each on at least two separate days, i.e., n = 4–16.

[2] = biological target: T1, OCT2; experiment: in vitro; conditions: for inhibition at 3 min, 20 µM / inhibition at 3 min, 200 µM: pH 7.3, probe [14C]metformin, 1000 µM, metformin 1000 μM, net uptake HEK-OCT2 minus HEK-VC; for inhibition at 3 min, 20 µM: % Inhibition of OCT2-dependent MF uptake at 20 µM (mean ± SEM), test drug 20 µM; for inhibition at 3 min, 200 µM: % Inhibition of OCT2-dependent MF uptake at 200 µM (mean ± SEM), test drug 200 µM
Protocol: as §1
Experimental half-maximal inhibitory concentrations (IC50 values) were measured as the substrate uptake in the presence of increasing concentrations of test drugs. These experiments were performed as described above (three experiments each on two separate days, i.e., n = 6). IC50 values were calculated with GraphPad Prism 5.0 (GraphPad Software, San Diego, CA, USA). IC50 was estimated by a sigmoidal inhibition model and was fit to the equation V = V 0 / (1 + (I / IC50 ) ^n ) by nonlinear regression. V is the net uptake in the presence of the inhibitor, V 0 is the net uptake in the absence of the inhibitor, I is the concentration of the inhibitor and n is the slope.

[3] = test drug 20 µM, MPP+ 50 μM, 3 min, net uptake HEK-OCT2 minus HEK-VC
[4] = test drug 200 µM, MPP+ 50 μM, 3 min, net uptake HEK-OCT2 minus HEK-VC

T1 sequence (O15244 whole entry): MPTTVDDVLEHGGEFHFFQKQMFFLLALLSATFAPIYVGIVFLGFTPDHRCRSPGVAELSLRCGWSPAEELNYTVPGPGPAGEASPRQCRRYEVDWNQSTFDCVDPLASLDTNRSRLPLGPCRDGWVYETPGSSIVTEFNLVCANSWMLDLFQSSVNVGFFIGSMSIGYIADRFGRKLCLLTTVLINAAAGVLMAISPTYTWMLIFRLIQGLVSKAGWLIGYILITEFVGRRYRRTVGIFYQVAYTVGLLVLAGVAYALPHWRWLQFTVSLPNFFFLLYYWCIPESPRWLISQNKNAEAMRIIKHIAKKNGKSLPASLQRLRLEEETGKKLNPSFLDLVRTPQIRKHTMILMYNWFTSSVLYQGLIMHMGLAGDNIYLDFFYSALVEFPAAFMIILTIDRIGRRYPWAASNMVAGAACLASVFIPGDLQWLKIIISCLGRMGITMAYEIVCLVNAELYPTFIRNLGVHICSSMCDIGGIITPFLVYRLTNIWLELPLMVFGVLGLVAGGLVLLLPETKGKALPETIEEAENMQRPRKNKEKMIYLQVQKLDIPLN

| SMILES | % Inhibition of OCT2-dependent MPP+ uptake at 20 µM (mean ± SEM) [1, 3] [%] | % Inhibition of OCT2-dependent MPP+ uptake at 200 µM (mean ± SEM) [1, 4] [%] | % Inhibition of OCT2-dependent MF uptake at 20 µM (mean ± SEM) ([2]; human, pH 7.3) | % Inhibition of OCT2-dependent MF uptake at 200 µM (mean ± SEM) ([2]; human, pH 7.3) | further results |
| --- | --- | --- | --- | --- | --- |
| COc1ccc(Cl)cc1C(=O)NCCc1ccc(S(=O)(=O)NC(=O)NC2CCCCC2)cc1 [Glibenclamide] | -27.7 ± 5.0 | -31.1 ± 1.7 | 38.7 ± 11.9 | 87.9 ± 3.2 | – |
| COCCc1ccc(OCC(O)CNC(C)C)cc1 (stereo not shown) [Metoprolol] | 23.2 ± 6.5 | 27.5 ± 6.9 | 50.5 ± 5.9 | 88.2 ± 1.7 | – |
| Cc1c(N(C)CS(=O)(=O)O)c(=O)n(-c2ccccc2)n1C [Metamizole] | -31.6 ± 6.0 | -39.1 ± 5.1 | -4.8 ± 6.4 | 8.4 ± 9.8 | – |
| CC(=O)NCCCS(=O)(=O)O [Acamprosate] | -8.1 ± 4.4 | -7.7 ± 5.2 | 2.7 ± 4.8% | 0.9 ± 5.8% | – |
| CCC(=O)C(CC(C)N(C)C)(c1ccccc1)c1ccccc1 (stereo not shown) [Methadone] | 8.9 ± 4.4 | 68.7 ± 3.8 | – | 99.3 ± 0.3 | – |
| CCOC(=O)C1=C(COCCN)NC(C)=C(C(=O)OC)C1c1ccccc1Cl (stereo not shown) [Amlodipine] | -13.8 ± 7.4 | 39.3 ± 6.8 | 21.9 ± 9.0% | 110.0 ± 17.3% | – |
| CC(C)OC(=O)C(C)(C)Oc1ccc(C(=O)c2ccc(Cl)cc2)cc1 [Fenofibrate] | 12.8 ± 5.0 | 32.0 ± 5.7 | 43.0 ± 9.9 | 73.4 ± 4.7 | – |
| CCN1CCCC1CNC(=O)c1cc(S(=O)(=O)CC)c(N)cc1OC (stereo not shown) [Amisulpride] | – | – | – | – | inhibition at 3 min, 20 µM ([1]; human): 25.5 ± 7%; inhibition at 3 min, 200 µM ([1]; human): 51.3 ± 6.7%; inhibition at 3 min, 20 µM ([2]; human): 52 ± 2.1%; inhibition at 3 min, 200 µM ([2]; human): 91.7 ± 0.7% |
| N[C@@H](Cc1ccc(O)c(O)c1)C(=O)O [Levodopa] | -24.6 ± 0.5 | 11.8 ± 1.4 | -9.3 ± 6.8 | 67.3 ± 2.6 | – |
| CO/N=C(\C(=O)N[C@@H]1C(=O)N2C(C(=O)O)=C(COC(N)=O)CS[C@H]12)c1ccco1 [Cefuroxime] | -10.5 ± 7.0 | -30.8 ± 12.9 | 29.9 ± 9.7% | 50.3 ± 11.6% | – |
| C#C[C@]1(O)CC[C@H]2[C@@H]3CCc4cc(O)ccc4[C@H]3CC[C@@]21C [Ethinylestradiol] | 14.0 ± 8.8 | 46.8 ± 6.3 | 31.8 ± 8.1 | 62.2 ± 13.1 | – |
| NS(=O)(=O)c1cc2c(cc1Cl)NCNS2(=O)=O [Hydrochlorothiazide] | -55.4 ± 10.2 | -36.6 ± 7.4 | -34.7 ± 16.9 | -38.6 ± 8.5 | – |
| C[C@]12C=CC(=O)C=C1CC[C@@H]1[C@@H]2[C@@H](O)C[C@@]2(C)[C@H]1CC[C@]2(O)C(=O)CO [Prednisolone] | 42.1 ± 4.4 | 68.6 ± 2.8 | 66.0 ± 2.5 | 91.5 ± 0.5 | – |
| [Li] [Lithium] | -28.4 ± 7.5 | -36.7 ± 9.7 | – | – | % Inhibition of OCT2-dependent MF uptake at 20 µM (mean ± SEM) [2]: -15.2 ± 7.9; % Inhibition of OCT2-dependent MF uptake at 200 µM (mean ± SEM) [2]: -14.7 ± 6.8 |
| C[C@H](CS)C(=O)N1CCC[C@H]1C(=O)O [Captopril] | 3.8 ± 5.7 | 10.2 ± 6.8 | -21.6 ± 19.5% | -59.0 ± 0.9% | – |
| COC(=O)C(c1ccccc1)C1CCCCN1 (stereo not shown) [Methylphenidate] | – | – | 17.9 ± 4.6 | 79.6 ± 2.3 | % Inhibition of OCT2-dependent MPP+ uptake at 20 µM (mean ± SEM) ([1]; human, pH 7.3): 11.5 ± 8.9; % Inhibition of OCT2-dependent MPP+ uptake at 200 µM (mean ± SEM) ([1]; human, pH 7.3): 31.6 ± 4.7 |
| CCOc1nc2cccc(C(=O)O)c2n1Cc1ccc(-c2ccccc2-c2nnn[nH]2)cc1 [Candesartan] | – | – | – | – | inhibition at 3 min, 20 µM ([1]; human): 0.9 ± 0.1%; inhibition at 3 min, 200 µM ([1]; human): -2.4 ± 4%; inhibition at 3 min, 20 µM ([2]; human): 48 ± 3.7%; inhibition at 3 min, 200 µM ([2]; human): 69.7 ± 2.7% |
| CC(=O)N[C@@H](CS)C(=O)O [Acetylcysteine] | -35.6 ± 7.7 | -36.0 ± 3.2 | 13.2 ± 6.3% | 11.0 ± 9.4% | – |
| CCCC(CCC)C(=O)O [Valproic acid] | -17.3 ± 9.5 | -29.0 ± 9.2 | 18.5 ± 7.6 | 27.7 ± 1.9 | – |
| Cc1cc2c(s1)Nc1ccccc1N=C2N1CCN(C)CC1 [Olanzapine] | 83.5 ± 9.4 | 109.7 ± 2.8 | -7.5 ± 5.7 | 74.9 ± 1.8 | % Inhibition of OCT2-dependent MPP+ uptake at 20 µM (mean ± SEM) ([1]; test drug 20 µM, MPP+ 50 μM, 3 min, net uptake HEK-OCT2 minus HEK-VC, listed as olanzapine): most potent inhibitors |
| O=C1CCc2ccc(OCCCCN3CCN(c4cccc(Cl)c4Cl)CC3)cc2N1 [Aripiprazole] | 6.7 ± 3.6 | 16.9 ± 5.2 | 53.4 ± 9.1% | 82.0 ± 6.7% | – |
| CC12CC3CC(C)(C1)CC(N)(C3)C2 [Memantine] | 20.6 ± 8.6 | 54.0 ± 7.0 | 54.0 ± 2.1 | 93.9 ± 0.6 | – |
| Fc1ccc([C@@H]2CCNC[C@H]2COc2ccc3c(c2)OCO3)cc1 [Paroxetine] | 15.5 ± 3.8 | 87.2 ± 3.6 | 80.6 ± 3.1 | 99.6 ± 1.9 | – |
| COC(=O)[C@H](c1ccccc1Cl)N1CCc2sccc2C1 [Clopidogrel] | – | – | 70.0 ± 2.0 | 92.8 ± 5.4 | % Inhibition of OCT2-dependent MPP+ uptake at 20 µM (mean ± SEM) ([1]; human, pH 7.3): 12.5 ± 0.8; % Inhibition of OCT2-dependent MPP+ uptake at 200 µM (mean ± SEM) ([1]; human, pH 7.3): 41.5 ± 4.0 |
| COc1ccc2cccc(CCNC(C)=O)c2c1 [Agomelatine] | – | – | – | – | inhibition at 3 min, 20 µM ([1]; human): -10.3 ± 2.7%; inhibition at 3 min, 200 µM ([1]; human): 39.9 ± 3.5%; inhibition at 3 min, 20 µM ([2]; human): 71.3 ± 2.6%; inhibition at 3 min, 200 µM ([2]; human): 95.5 ± 1.8% |
| CNCC[C@H](Oc1cccc2ccccc12)c1cccs1 [Duloxetine] | – | – | 76.5 ± 0.9 | 98.3 ± 0.2 | % Inhibition of OCT2-dependent MPP+ uptake at 20 µM (mean ± SEM) ([1]; human, pH 7.3): 23.3 ± 6.0; % Inhibition of OCT2-dependent MPP+ uptake at 200 µM (mean ± SEM) ([1]; human, pH 7.3): 86.4 ± 5.1 |
| CCN(C)C(=O)Oc1cccc([C@H](C)N(C)C)c1 [Rivastigmine] | 25.1 ± 9.1 | 59.4 ± 4.6 | 51.8 ± 4.0 | 91.4 ± 1.5 | – |
| O=C(CCCN1CCC(n2c(O)nc3ccccc32)CC1)c1ccc(F)cc1 [Benperidol] | -21.5 ± 2.8 | 1.6 ± 8.3 | 58.7 ± 3.3% | 72.2 ± 2.7% | – |
